“Also recorded” adds a separate entry of the source. No end group written: not given here.
How the values were obtained:
Jurkat T cells = test: hGal-7-induced apoptosis of Jurkat T cells, PARP-1 cleavage (Western blot); format: cell-based; conditions: hGal-7 pre-incubated with peptide, then Jurkat cells 4 h at 37°C, serum-free RPMI, Supplementary Fig. S3: peptide 200 μM
Protocol: Apoptosis was measured by Western blot analysis of PARP-1 cleavage. The PACAP28–38 was used as a control. β-actin was used as a loading control. B. Flow cytometric analysis of Jurkat T cells with stained Annexin V (FL1) and propidium iodide-PI (FL3) following binding of recombinant hGal-7 with or without hGal-7(129–135). Cells in the lower right quadrant are representative of annexin V-positive/PI-negative, or early apoptotic cells. Cells in the upper right quadrant indicate annexin V-positive/PI-positive, or late apoptotic cells. C. Histogram showing the percentages of annexin V-positive Jurkat T cells obtained by adding the percentages of cells found in the lower and upper right quadrants. Results are representative of three independent experiments. Error bars represent standard deviation.
For the apoptosis tests, whole-cell extracts were homogenized and resuspended in RIPA buffer (Thermo Fisher Scientific, Rockford, IL, USA) containing protease inhibitors (Roche, Laval, QC, Canada). Equal amounts of whole-cell extracts (25 μg) were separated on SDS-PAGE and transferred onto nitrocellulose membranes (Bio-Rad Laboratories). The membranes were first blocked with 5% milk [w/v] in TBS/0.5% Tween 20 [v/v] for 1 h at room temperature and subsequently blotted overnight in a solution of TBS containing 3% BSA [w/v] and 0.5% Tween 20 [v/v]. The following antibodies were used: a rabbit anti-poly-(ADP-ribose) polymerase (PARP)-1 (p25) polyclonal antibody (1:5000; Epitomics, Burlingame, CA, USA) and a mouse anti-β-actin (1:10000; Sigma-Aldrich, St. Louis, MO, USA). Secondary antibodies consisted of horseradish peroxidase-conjugated donkey anti-rabbit (GE Healthcare, Buckinghamshire, England) and sheep anti-mouse (GE Healthcare) IgG. Detection was performed using the enhanced chemiluminescence method (GE Healthcare). […]
concentrations of recombinant human gaI-7 were pre-incubated with the hGaI-7129–135 (200 μM) prior to its addition to A. Jurkat T cells or B. PBMCs. Apoptosis wa, measured after 4 h at 37°C in serum·free conditions. […]

recombinant hGal-7 = test: Disruption of hGal-7 homodimers, native gel electrophoresis/Western blot; format: biochemical, human; conditions: for disruption of hGal-7 homodimers (in words): 0.5 μM recombinant hGal-7, 20 mM potassium phosphate pH 7.1, 1 h at 4°C
From the text: To measure the ability of the peptides to disrupt the formation of hGal-7 dimers, we used mild denaturing native gel electrophoresis, a commonly used approach to visualize monomer-dimer equilibrium (Fig. 1A and Supplementary Fig. S1). […] This specificity at disrupting hGal-7 dimer formation is provided by distinct three-dimensional arrangements between otherwise very similar galectin homologues. Indeed, while all monomeric galectins reveal identical topologies, dimer formation in hGal-7 proceeds through a “back-to-back” topology of the monomers while other galectins, including hGal-1 and hGal-2, adopt a “side-by-side” structural arrangement (Fig. 1B). This structural organization provides additional means to specifically target and disrupt galectin function.
Incubation of the recombinant B. hGal-1 and C. hGal-2 with hGal-7(129–135) was performed in the same potassium phosphate buffer. The effect of hGal-7(129–135) on the monomeric and dimeric forms of hGal-7/hGal-1/hGal-2 was assessed by Western blotting in native conditions with respective antibodies. The hGal-1/hGal-2 films were overexposed. PACAP28–38 was the control peptide used in order to ensure the specificity of hGal-7(129–135). Recombinant hGal-7 (0.5 μM) was also incubated with increasing concentrations of hGal-7(129–135) in 0.1 mM D. lactose or E. LacNac solutions. Results are representative of three independent experiments.
Human Gal-7 cDNA was cloned into pET-22b(+) using NdeI and HindIII restriction enzymes. Human pET-Gal-1 vector was generously donated by Dr. S. Sato (McGill University, QC, Canada). The proteins were produced in E. coli BL21 (DE3) cells at 37°C. Isopropyl β-D-1-thiogalactopyranoside (IPTG) (1 mM) was added to the bacterial culture at OD600nm = 0.6–0.7 and then incubated for 4 h at 37°C to allow protein production. Bacterial pellets were resuspended in lysis buffer (0.7 mg/mL lysozyme, 10 mM Tris pH 8, 100 mM NaCl, 1 mM EDTA, 1 mM DTT and a protease inhibitor cocktail) and then incubated for 1 h at 37°C prior to centrifugation for 30 min at 15,000 × g (4°C). The supernatant was then filtered with 500 mL bottle top filter ([…]) (Corning, New York, NY, USA) and then ran through a lactose-agarose column (Sigma, St. Louis, MO, USA). The protein was eluted in 1 mL fractions with 150 mM lactose solution. Purified fractions were analyzed by SDS-PAGE. The hGal-7 was then concentrated and purified using Centrifugal filter units (Amicon Ultra-15, 10K) (EMD, Millipore, Etobicoke, ON) in 20 mM potassium phosphate at pH 7.1. All subsequent experiments with the recombinant proteins were performed in the same buffer solution unless mentioned otherwise. Brilliant Coomassie blue was purchased from BioRad (Bio-Rad Laboratories, Mississauga, ON, Canada). The recombinant protein hGal-2 was purchased from MyBiosource (San Diego, CA, USA). […]
gaI-7 (0.5 μM) was incubated with increasing concentrations of biotin-labeled hGaI-7129–135 in 20 mM potassium phosphate buffer (pH 7.1) for 60 min at 4°C beforeWestern blot analysis in low SDS-PAGE using an anti-gaI-7 antibody. B. Similar experiments were carried out using recombinant human B. gaI-1 and C. gaI-2. Results are representative of two independent experiments.
(also on this page, place not known: www.impactjournals.com/oncotarget/ Oncotarget, Materials 2015 Supplementary hGaI-7 129–135.)

[1] = 0.5 μM recombinant hGal-7, 20 mM potassium phosphate pH 7.1, pre-incubated 1 h at 4°C, native PAGE, Western blot, representative of three independent experiments

| Substance | inhibition of hGal-7-induced apoptosis in Jurkat T cells (PARP-1 cleavage) (Jurkat T cells) | inhibition of hGal-7-induced apoptosis in Jurkat T cells (PARP-1 cleavage) (Jurkat T cells; listed as hGaI-7129–135) | disruption of hGal-7 homodimers in presence of LacNac (recombinant hGal-7; 0.5 μM hGal-7, 0.1 mM LacNac, representative of three independent experiments) | disruption of hGal-7 homodimers in presence of lactose (recombinant hGal-7; 0.5 μM hGal-7, 0.1 mM lactose, representative of three independent experiments) | disruption of hGal-7 homodimers (in words) (recombinant hGal-7; native PAGE, Western blot) | lowest concentration giving a consistent decrease of hGal-7 homodimers (recombinant hGal-7; [1]) | saturation dose for decrease of hGal-7 homodimers (recombinant hGal-7; [1]) |
| --- | --- | --- | --- | --- | --- | --- | --- |
| H-LDSVRIP-NH2 [hGal-7(129–135), peptide corresponding to hGal-7 segment between residues 129–135] | inhibited the ability of hGal-7 to induce apoptosis in Jurkat T cells; also recorded: dose-dependent | decreases gaI-7-induced apoptosis | not inhibited by the presence of lactose or LacNac | not inhibited by the presence of lactose | Disruption of the hGal-7 dimer; also recorded: effective at relatively high concentrations | 10 µM | 100 µM |
| PACAP(28–38): an inactive fragment of the human Pituitary Adenylate Cyclase-Activating Polypeptide (PACAP) (GKRYKQRVKNK-NH2; ends and bridges not checked; UniProt P18509 159-169, looked up, fragment) | No such effect was observed with the control peptide | – | – | – | No such effect was observed | – | – |
